Assay results reported in patent US20260137706A1, “METHODS OF TREATING INFLAMMATORY DISEASES” (INTERLINE THERAPEUTICS, INC., priority 2023, published 2026).

Legend:
[1] = tested on: NF-κB pathway (SEAP) in THP1-Dual cells; assay: THP-1 Dual cell SEAP assay (L18-MDP stimulated); type: cell-based; conditions: Homo sapiens, THP1-Dual, read-out: NF-κB THP1 IC50 bin
Procedure, shortened: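 THP1-Dual cells (~25,000/well) were preincubated 30 min with serially diluted compounds, then stimulated with 10 ng/mL L18-MDP (final) for 20-24 h at 37 °C. Supernatant SEAP was read with QUANTI-Blue at OD 620-655 nm after 2 h. IC50 came from non-linear fits of % inhibition versus DMSO/L18-MDP controls after media-blank subtraction.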

[2] = target: T1, GST-RIPK2 fusion protein (human RIPK2, amino acids 1-310) (Homo sapiens, UniProt O43353); assay: RIPK2 binding competition assay (TR-FRET, Tracer 199 displacement); conditions: 10 nM Tracer 199, 1 nM GST-RIPK2, read-out: RIPK2 IC50
T1 construct: made in house; host or cells: baculovirus infected Sf9 cells
T1 sequence (O43353 1-310): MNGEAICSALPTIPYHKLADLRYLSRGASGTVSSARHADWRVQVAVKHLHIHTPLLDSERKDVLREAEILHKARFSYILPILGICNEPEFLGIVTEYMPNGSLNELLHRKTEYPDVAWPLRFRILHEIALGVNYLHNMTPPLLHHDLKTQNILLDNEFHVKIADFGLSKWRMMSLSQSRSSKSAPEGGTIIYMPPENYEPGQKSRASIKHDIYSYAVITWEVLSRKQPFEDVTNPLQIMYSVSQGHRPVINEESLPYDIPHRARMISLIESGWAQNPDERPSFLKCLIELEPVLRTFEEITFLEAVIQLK
Procedure, shortened: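 GST-RIPK2 (human aa 1-310, Sf9-expressed; final 1 nM) with Tracer 199 (final 10 nM) and Tb-anti-GST (final 0.5 nM) in Tris pH 7.5 buffer, 45 min at 22 °C. TR-FRET 665/620 nm ratio after 337 nm excitation; normalized to no-inhibitor (0%) and no-protein (−100%), giving IC50.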

[3] = target: T2, binding of His-XIAP(BIR2)-avi fusion protein to GST-RIPK2 fusion protein (RIPK2/XIAP) (Homo sapiens, UniProt O43353); assay: RIPK2-XIAP binding competition PPI assay (TR-FRET); conditions: RIPK2/XIAP binding competition PPI assay; for Emax: Amax, read-out: PPI Amax bin; for IC50: read-out: PPI IC50 bin
T2 construct: made in house; host or cells: baculovirus infected Sf9 cells
T2 sequence (O43353 1-310 limits assumed): as the sequence (O43353 1-310) above
Procedure, shortened: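 Compounds (in DMSO, 100-fold stock) incubated 120 min at 23 °C with 1 nM GST-RIPK2 (aa 1-310) and 25 nM His-XIAP(BIR2 aa 152-231)-avi, plus anti-His-XL665 and anti-GST-Tb, in pH 7.5 Tris buffer. Read-out: 665/520 nm emission ratio. Normalized to no-inhibitor (0%) and 50 nM GSK583 (−100%); Amax binned A–D.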

Structure (SMILES) | IC50 [1] | IC50 [2] | Emax [3] | IC50 [3]
CC(C)(C)S(=O)(=O)c1cn2c(-c3cc(F)c(N)nc3F)cnc2cc1OCCN1CCOC1=O [Example 29, 3-(2-((3-(6-amino-2,5-difluoropyridin-3-yl)-6-(tert-butylsulfonyl)imidazo[1,2-a]pyridin-7-yl)oxy)ethyl)oxazolidin-2-one] | 250 to 1000 nM | 2.5 to 20 nM | > 80% | 2.5 to 20 nM
COc1cc2ncc(-c3cc(N)nc(F)c3)n2cc1C(F)(F)F [Example 2, 6-fluoro-4-(7-methoxy-6-(trifluoromethyl)imidazo[1,2-a]pyridin-3-yl)pyridin-2-amine] | 50 to 250 nM | 2.5 to 20 nM | < 30% | > 20 nM
COc1cc2ncc(-c3cnn(-c4ccccc4)c3F)n2cc1S(=O)(=O)C(C)(C)C [Example 88, 6-(tert-butylsulfonyl)-3-(5-fluoro-1-phenyl-1H-pyrazol-4-yl)-7-methoxyimidazo[1,2-a]pyridine] | > 1000 nM | > 20 nM | < 30% | > 20 nM
CC(C)(C)S(=O)(=O)c1cn2c(-c3cc(Cl)c(N)nc3F)cnc2cc1OCC(F)(F)CN [Example 243, 5-(7-(3-amino-2,2-difluoropropoxy)-6-(tert-butylsulfonyl)imidazo [1,2-a]pyridin-3-yl)-3-chloro-6-fluoropyridin-2-amine] | 50 to 250 nM | 1 to 2.5 nM | > 80% | 1 to 2.5 nM
CCCS(=O)(=O)Nc1cc(-c2cnc3cc(OC)c(S(=O)(=O)C(C)(C)CO)cn23)cc(Cl)c1OC [Example 129, N-(3-chloro-5-(6-((1-hydroxy-2-methylpropan-2-yl)sulfonyl)-7-methoxyimidazo[1,2-a]pyridin-3-yl)-2-methoxyphenyl)propane-1-sulfonamide] | 50 to 250 nM | < 1 nM | > 80% | < 1 nM
CCS(=O)(=O)Nc1cc(-c2cnc3cc(OC)c(C(=O)N4CCC(O)CC4)cn23)cc(F)c1OC [Example 192, N-(3-fluoro-5-(6-(4-hydroxypiperidine-1-carbonyl)-7-methoxyimidazo[1,2-a]pyridin-3-yl)-2-methoxyphenyl) ethanesulfonamide] | > 1000 nM | 2.5 to 20 nM | > 80% | 2.5 to 20 nM
COc1cc2ncc(-c3cc(F)c(N)nc3F)n2cc1S(=O)(=O)C1(C)CCN(C2COC2)CC1 [Example 124, 3,6-difluoro-5-(7-methoxy-6-((4-methyl-1-(oxetan-3-yl)piperidin-4-yl)sulfonyl)imidazo[1,2-a]pyridin-3-yl)pyridin-2-amine] | > 1000 nM | 2.5 to 20 nM | > 80% | > 20 nM
COc1cc2ncc(-c3cnc4c(c3)OCC4O)n2cc1S(=O)(=O)C(C)(C)C (centres unmarked) [Example 87, 6-(6-(tert-butylsulfonyl)-7-methoxyimidazo[1,2-a]pyridin-3-yl)-2,3-dihydrofuro[3,2-b]pyridin-3-ol] | > 1000 nM | > 20 nM | 30 to 55% | > 20 nM
Cc1nc(N)c(F)cc1-c1cnc2cc(OCCO)c(S(=O)(=O)C(C)(C)C)cn12 [Example 51, 2-((3-(6-amino-5-fluoro-2-methylpyridin-3-yl)-6-(tert-butylsulfonyl)imidazo[1,2-a]pyridin-7-yl)oxy)ethan-1-ol] | > 1000 nM | > 20 nM | < 30% | > 20 nM
C=CS(=O)(=O)Nc1cc(-c2cnc3cc(OC)c(S(=O)(=O)C(C)(C)C)cn23)cc(OC)c1OC [Example 144, N-(5-(6-(tert-butylsulfonyl)-7-methoxyimidazo[1,2-a]pyridin-3-yl)-2,3-dimethoxyphenyl)ethenesulfonamide] | < 50 nM | 1 to 2.5 nM | > 80% | < 1 nM
COc1cc2ncc(-c3cc(NS(=O)(=O)C4(CO)CC4)c(OC)c(OC)c3)n2cc1S(=O)(=O)C(C)(C)C [Example 178, N-(5-(6-(tert-butylsulfonyl)-7-methoxyimidazo[1,2-a]pyridin-3-yl)-2,3-dimethoxyphenyl)-1-(hydroxymethyl)cyclopropane-1-sulfonamide] | < 50 nM | < 1 nM | > 80% | < 1 nM
COc1cc2ncc(-c3cccc(NS(=O)(=O)C4CCN(C(=O)OC(C)(C)C)C4)c3)n2cc1S(=O)(=O)C(C)(C)C (centres unmarked) [Example 153, tert-butyl 3-(N-(3-(6-(tert-butylsulfonyl)-7-methoxyimidazo[1,2-a]pyridin-3-yl)phenyl)sulfamoyl)pyrrolidine-1-carboxylate] | > 1000 nM | 2.5 to 20 nM | > 80% | > 20 nM
OCCCNc1cc(-c2cnc3ccc(C(F)(F)F)cn23)cc(F)n1 [Example 5, 3-((6-fluoro-4-(6-(trifluoromethyl)imidazo[1,2-a]pyridin-3-yl)pyridin-2-yl)amino)propan-1-ol] | 250 to 1000 nM | > 20 nM | < 30% | > 20 nM
COc1cc2ncc(-c3cccc(NS(=O)(=O)C4CC4)c3)n2cc1S(=O)(=O)C(C)(C)C [Example 146, N-(3-(6-(tert-butylsulfonyl)-7-methoxyimidazo[1,2-a]pyridin-3-yl)phenyl)cyclopropanesulfonamide] | > 1000 nM | 2.5 to 20 nM | > 80% | 2.5 to 20 nM
COc1cc2ncc(-c3cc(F)c(OC)c4nn(CCO)cc34)n2cc1S(=O)(=O)C(C)(C)C [Example 122, 2-(4-(6-(tert-butylsulfonyl)-7-methoxyimidazo[1,2-a]pyridin-3-yl)-6-fluoro-7-methoxy-2HI-indazol-2-yl)ethan-1-ol] | > 1000 nM | > 20 nM | < 30% | > 20 nM
CC(C)(C)S(=O)(=O)c1cn2c(-c3cnc4[nH]ccc4n3)cnc2cc1OCCO [Example 277, 2-((6-(tert-butylsulfonyl)-3-(5H-pyrrolo[2,3-b]pyrazin-2-yl)imidazo[1,2-a]pyridin-7-yl)oxy)ethan-1-ol] | 250 to 1000 nM | 2.5 to 20 nM | < 30% | > 20 nM
COc1cc2ncc(-c3cc(F)c(N)nc3F)n2cc1S(=O)(=O)c1ccnn1C [Example 77, 3,6-difluoro-5-(7-methoxy-6-((1-methyl-1H-pyrazol-5-yl)sulfonyl)imidazo[1,2-a]pyridin-3-yl)pyridin-2-amine] | > 1000 nM | > 20 nM | > 80% | > 20 nM
CC(C)(C)S(=O)(=O)c1cn2c(-c3cc(F)c(N)nc3F)cnc2cc1OCC(O)CO (centres unmarked) [Example 55, 3-((3-(6-amino-2,5-difluoropyridin-3-yl)-6-(tert-butylsulfonyl)imidazo[1,2-a]pyridin-7-yl)oxy)propane-1,2-diol] | 250 to 1000 nM | 2.5 to 20 nM | > 80% | 2.5 to 20 nM
CC(C)(C)S(=O)(=O)c1cn2c(-c3cnc4c(c3)C3(CC3)CN4)cnc2cc1OCCO [Example 237, 2-((6-(tert-butylsulfonyl)-3-(1′,2′-dihydrospiro [cyclopropane-1,3′-pyrrolo[2,3-b]pyridin] -5′-yl)imidazo[1,2-a]pyridin-7-yl)oxy)ethan-1-ol] | > 1000 nM | > 20 nM | < 30% | > 20 nM
COc1cc2ncc(-c3cc(F)c(N)nc3F)n2cc1S(=O)(=O)C(C)(C)c1nc(C)no1 [Example 64, 3,6-difluoro-5-(7-methoxy-6-((2-(3-methyl-1,2,4-oxadiazol-5-yl)propan-2-yl)sulfonyl)imidazo[1,2-a]pyridin-3-yl)pyridin-2-amine] | > 1000 nM | > 20 nM | > 80% | > 20 nM
COc1cc2ncc(-c3cccc(NS(=O)(=O)CC4CC4)c3)n2cc1S(=O)(=O)C(C)(C)C [Example 151, N-(3-(6-(tert-butylsulfonyl)-7-methoxyimidazo[1,2-a]pyridin-3-yl)phenyl)-1-cyclopropylmethanesulfonamide] | 250 to 1000 nM | 1 to 2.5 nM | > 80% | 1 to 2.5 nM
CC(C)(C)S(=O)(=O)c1cn2c(-c3cc(F)c(N)nc3F)cnc2cc1OC[C@H]1C[C@@H](O)C1 [Example 196, (1s,3s)-3-(((3-(6-amino-2,5-difluoropyridin-3-yl)-6-(tert-butylsulfonyl)imidazo [1,2-a]pyridin-7-yl)oxy)methyl) cyclobutan-1-ol] | 50 to 250 nM | 1 to 2.5 nM | > 80% | 1 to 2.5 nM
COc1cc2ncc(-c3cc(N)cc4[nH]ncc34)n2cc1S(=O)(=O)C(C)(C)C [Example 7, 4-[7-Methoxy-6-(2-methylpropane-2-sulfonyl)imidazo[1,2-a]pyridin-3-yl]-1H-indazol-6-amine] | > 1000 nM | > 20 nM | 30 to 55% | > 20 nM
